Among the data in ChEMBL document CHEMBL1201862, “PubChem BioAssay data set” (2004) are IC50 and EC50 values, retold here.

Molecules are shown by their SMILES. Active and inactive are the calls of the source.

One assay deals with Steroidogenic factor 1 (Homo sapiens, UniProt Q13285). As to the kind of experiment: Counterscreen for inverse agonists of the liver receptor homolog-1 (LRH-1; NR5A2): Luminescence-based cell-based high throughput dose response assay to identify inverse agonists of the Steroidogenic Factor 1 Nuclear Receptor (SF1; NR5A1). In kind it is functional. A general note: A counterscreen serves to expose hits that act by an unwanted route or on another target.
Steroidogenic factor 1, sequence (Q13285 whole entry): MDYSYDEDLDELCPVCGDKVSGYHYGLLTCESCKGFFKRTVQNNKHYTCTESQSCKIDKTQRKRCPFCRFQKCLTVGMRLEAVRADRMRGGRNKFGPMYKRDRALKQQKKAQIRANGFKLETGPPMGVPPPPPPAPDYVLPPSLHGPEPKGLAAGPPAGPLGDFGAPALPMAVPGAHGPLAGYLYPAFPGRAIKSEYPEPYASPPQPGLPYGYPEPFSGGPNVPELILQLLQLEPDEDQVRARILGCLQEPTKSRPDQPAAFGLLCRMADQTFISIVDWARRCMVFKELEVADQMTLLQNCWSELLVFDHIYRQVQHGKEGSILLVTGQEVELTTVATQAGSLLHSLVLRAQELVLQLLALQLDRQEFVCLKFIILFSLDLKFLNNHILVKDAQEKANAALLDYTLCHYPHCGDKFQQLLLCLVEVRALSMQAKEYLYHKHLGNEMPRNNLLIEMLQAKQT

Assay [1] can be described thus: nonselective StAR promoter luciferase inhibitors – cell-based, luminescence, luciferase reporter, counter-screen for LRH-1 inverse agonist project, dose response (AID 651969). In kind it is functional. For orientation: A reporter such as luciferase makes a cellular process visible.
In assay [2] the target is Nuclear receptor subfamily 5 group A member 2 (Homo sapiens, UniProt O00482). In kind it is functional, cell-based.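 Further: HEK293T cells transfected with LRH-1 and a StAR promoter luciferase reporter; potency for inhibitors that lower LRH-1 driven reporter light.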
Nuclear receptor subfamily 5 group A member 2, sequence (O00482 whole entry): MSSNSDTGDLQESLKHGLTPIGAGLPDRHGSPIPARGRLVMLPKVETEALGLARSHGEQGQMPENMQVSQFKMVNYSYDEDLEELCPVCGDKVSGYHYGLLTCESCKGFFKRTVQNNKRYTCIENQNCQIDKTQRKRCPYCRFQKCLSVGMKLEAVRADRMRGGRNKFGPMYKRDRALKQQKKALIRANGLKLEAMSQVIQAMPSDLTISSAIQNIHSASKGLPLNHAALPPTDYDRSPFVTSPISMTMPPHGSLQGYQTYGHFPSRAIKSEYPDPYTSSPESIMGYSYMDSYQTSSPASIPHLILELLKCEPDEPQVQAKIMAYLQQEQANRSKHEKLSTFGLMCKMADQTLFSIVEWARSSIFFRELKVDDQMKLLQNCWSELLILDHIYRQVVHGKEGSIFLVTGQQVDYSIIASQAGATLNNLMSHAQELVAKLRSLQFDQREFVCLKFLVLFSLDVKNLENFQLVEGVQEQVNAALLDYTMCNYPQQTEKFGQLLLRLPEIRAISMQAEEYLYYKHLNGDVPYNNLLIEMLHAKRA
Assay [3] concerns the target T1, High affinity choline transporter 1 (Homo sapiens, UniProt Q9GZV3).
T1 sequence (Q9GZV3 whole entry): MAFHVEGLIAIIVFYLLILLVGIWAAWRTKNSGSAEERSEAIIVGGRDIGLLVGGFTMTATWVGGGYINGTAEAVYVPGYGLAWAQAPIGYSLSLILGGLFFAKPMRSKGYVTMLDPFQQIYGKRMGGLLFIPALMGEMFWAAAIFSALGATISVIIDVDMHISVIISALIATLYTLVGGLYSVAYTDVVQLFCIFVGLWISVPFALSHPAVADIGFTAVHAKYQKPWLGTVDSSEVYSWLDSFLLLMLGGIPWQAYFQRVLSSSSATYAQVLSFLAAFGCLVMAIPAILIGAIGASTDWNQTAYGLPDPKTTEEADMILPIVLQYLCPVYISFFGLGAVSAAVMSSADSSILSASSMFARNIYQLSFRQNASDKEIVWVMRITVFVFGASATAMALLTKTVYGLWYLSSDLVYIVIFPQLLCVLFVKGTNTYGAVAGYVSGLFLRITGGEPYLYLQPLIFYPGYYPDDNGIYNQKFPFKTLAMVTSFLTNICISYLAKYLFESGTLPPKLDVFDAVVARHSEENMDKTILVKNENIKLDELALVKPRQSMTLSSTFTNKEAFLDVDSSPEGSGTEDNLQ
Briefly: human choline transporter blockers, potency – cell-based, 10-point CRC, membrane potential dye, dose response (AID 588401).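 Further: membrane potential dye fluorescence of choline-evoked depolarization via CHT.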 In kind it is functional.

The target in assay [4] is T1, High affinity choline transporter 1. As to the kind of experiment: human choline transporter blockers, potency – cell-based, 5-point CRC, membrane potential dye, dose response (AID 504840). In kind it is functional.
Assay [5] concerns the target T2, Probable nicotinate-nucleotide adenylyltransferase (Staphylococcus aureus (strain N315), UniProt P65502). In kind it is functional, Staphylococcus aureus subsp. aureus N315. The conditions noted are these: read-out: IC50_Mean.
Assay [6] has as its target T2, Probable nicotinate-nucleotide adenylyltransferase. In kind it is functional, Staphylococcus aureus subsp. aureus N315.
The next assay deals with Streptococcus. As to the kind of experiment: GAS UMAA2166 growth inhibition – luminescence, BacTiterGlo, counter-screen for streptokinase expression inhibitor project, dose response (AID 1915).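 Further: potency for reduction of bacterial viability or growth.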 In kind it is functional, organism-based.
The next assay has as its target Melanocortin receptor 4 (Homo sapiens, UniProt P32245). Format: functional, cell-based.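 Further: Cell-based assay with luminescence read-out, confirmatory dose-response testing for agonist activity of biased ligands at MC4R; human U2OS cells with tagged receptor and beta-arrestin; potency of agonists that increase receptor coupling to beta-arrestin.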
Assay [7] relates to Streptococcus sp. 'group A'. Briefly: Streptococcus pyogenes SK(-)GAS viability under kanamycin – luminescence, BacTiterGlo, confirmation, counter-screen for streptokinase expression inhibitor project, dose response (AID 1900). In kind it is functional, organism-based.
Another assay has as its system H9c2. As to the kind of experiment: cells. In kind it is functional, cell-based. The conditions noted are these: Rattus norvegicus, H9c2, Myocardium.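 Further: confirmatory concentration-response retest of ultra-high-throughput screening hits for modulation of myocardial damage; cell death induced by hydrogen peroxide oxidative stress; compound pretreatment for 60 min then peroxide exposure for 2 h; potency is for protecting the cells against peroxide damage rather than for killing them.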
Assay [8] concerns the target T3, Sentrin-specific protease 7 (Homo sapiens, UniProt Q9BQF6).
T3 sequence (Q9BQF6 whole entry): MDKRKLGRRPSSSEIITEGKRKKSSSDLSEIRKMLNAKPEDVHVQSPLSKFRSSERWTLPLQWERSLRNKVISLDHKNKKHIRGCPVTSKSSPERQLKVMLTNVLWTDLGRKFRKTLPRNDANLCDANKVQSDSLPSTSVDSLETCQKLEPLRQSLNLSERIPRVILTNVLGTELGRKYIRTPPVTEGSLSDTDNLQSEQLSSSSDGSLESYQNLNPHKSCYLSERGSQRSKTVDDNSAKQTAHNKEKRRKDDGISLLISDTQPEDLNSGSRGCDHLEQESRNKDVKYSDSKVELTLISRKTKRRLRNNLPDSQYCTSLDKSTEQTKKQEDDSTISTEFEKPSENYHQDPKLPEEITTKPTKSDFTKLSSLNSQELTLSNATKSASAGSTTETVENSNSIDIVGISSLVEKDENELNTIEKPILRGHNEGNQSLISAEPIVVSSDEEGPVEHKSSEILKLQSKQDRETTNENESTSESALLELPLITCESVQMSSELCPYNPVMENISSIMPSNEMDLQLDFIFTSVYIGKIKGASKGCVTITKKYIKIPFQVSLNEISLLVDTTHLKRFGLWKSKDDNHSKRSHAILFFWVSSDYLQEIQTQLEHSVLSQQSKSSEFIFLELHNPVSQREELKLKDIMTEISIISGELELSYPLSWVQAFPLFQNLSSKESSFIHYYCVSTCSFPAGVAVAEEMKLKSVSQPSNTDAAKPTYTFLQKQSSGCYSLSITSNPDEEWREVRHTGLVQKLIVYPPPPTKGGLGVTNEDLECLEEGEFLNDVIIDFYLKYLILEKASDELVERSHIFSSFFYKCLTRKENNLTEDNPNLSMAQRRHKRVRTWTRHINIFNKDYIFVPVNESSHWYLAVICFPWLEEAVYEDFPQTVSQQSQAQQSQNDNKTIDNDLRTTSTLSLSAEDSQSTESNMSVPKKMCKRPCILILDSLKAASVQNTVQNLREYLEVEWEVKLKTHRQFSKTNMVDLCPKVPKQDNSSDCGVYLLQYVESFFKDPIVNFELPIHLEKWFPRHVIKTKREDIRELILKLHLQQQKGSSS
As to the kind of experiment: inhibition of human SENP7 cleavage activity – biochemical, luminescence, SAR follow-up (AID 504497). Format: functional.

Assay [9] deals with T4, Sentrin-specific protease 6 (Homo sapiens, UniProt Q9GZR1).
T4 sequence (Q9GZR1 whole entry): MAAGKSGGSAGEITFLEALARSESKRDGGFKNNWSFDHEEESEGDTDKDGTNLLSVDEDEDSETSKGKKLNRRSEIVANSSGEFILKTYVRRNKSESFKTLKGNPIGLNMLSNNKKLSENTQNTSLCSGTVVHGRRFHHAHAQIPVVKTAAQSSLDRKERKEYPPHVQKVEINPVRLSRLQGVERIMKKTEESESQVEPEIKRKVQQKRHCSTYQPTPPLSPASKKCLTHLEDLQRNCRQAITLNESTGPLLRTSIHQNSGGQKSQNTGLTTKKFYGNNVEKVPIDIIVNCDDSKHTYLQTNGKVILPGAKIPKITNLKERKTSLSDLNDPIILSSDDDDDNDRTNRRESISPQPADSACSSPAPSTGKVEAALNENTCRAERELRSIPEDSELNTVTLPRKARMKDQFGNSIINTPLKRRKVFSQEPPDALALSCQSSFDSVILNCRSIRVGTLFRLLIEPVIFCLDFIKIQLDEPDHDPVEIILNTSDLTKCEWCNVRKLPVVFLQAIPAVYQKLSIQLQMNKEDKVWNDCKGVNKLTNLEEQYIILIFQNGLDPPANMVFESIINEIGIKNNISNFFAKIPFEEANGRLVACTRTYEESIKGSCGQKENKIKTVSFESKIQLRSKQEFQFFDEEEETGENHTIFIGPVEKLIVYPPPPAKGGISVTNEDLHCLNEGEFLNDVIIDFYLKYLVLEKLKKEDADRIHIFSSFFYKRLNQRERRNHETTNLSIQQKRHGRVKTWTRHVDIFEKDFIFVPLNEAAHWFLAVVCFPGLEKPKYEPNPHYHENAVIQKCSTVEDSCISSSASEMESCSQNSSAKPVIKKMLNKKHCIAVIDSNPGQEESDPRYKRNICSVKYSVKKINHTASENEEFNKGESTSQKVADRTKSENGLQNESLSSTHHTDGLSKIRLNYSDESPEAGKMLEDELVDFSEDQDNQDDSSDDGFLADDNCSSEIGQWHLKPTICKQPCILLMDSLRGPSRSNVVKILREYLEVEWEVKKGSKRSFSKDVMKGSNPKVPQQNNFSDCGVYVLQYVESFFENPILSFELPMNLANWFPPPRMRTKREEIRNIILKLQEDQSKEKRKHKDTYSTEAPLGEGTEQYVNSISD
Briefly: SAR Analysis of small molecule inhibitors of Sentrin-specific protease 6 (SENP6) using a Luminescent assay. [Related pubchem assays (depositor defined):AID2582, AID2599]. Format: functional.

In another assay the target is T5, Caspase-3 (Homo sapiens, UniProt P42574).
T5 sequence (P42574 whole entry): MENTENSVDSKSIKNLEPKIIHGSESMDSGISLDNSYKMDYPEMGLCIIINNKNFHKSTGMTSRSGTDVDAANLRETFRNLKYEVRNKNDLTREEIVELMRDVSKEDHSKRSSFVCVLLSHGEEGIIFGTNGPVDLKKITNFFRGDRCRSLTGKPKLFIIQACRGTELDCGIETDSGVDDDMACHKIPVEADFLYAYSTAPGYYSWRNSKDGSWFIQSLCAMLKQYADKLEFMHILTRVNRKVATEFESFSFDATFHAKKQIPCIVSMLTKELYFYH
As to the kind of experiment: SAR Analysis of small molecule inhibitors of Sentrin-specific proteases (SENPs) using a Caspase-3 Selectivity assay. [Related pubchem assays (depositor defined):AID2540, AID2599, AID434973, AID489001]. In kind it is functional.

In assay [10] the target is T6, Sentrin-specific protease 8 (Homo sapiens, UniProt Q96LD8).
T6 sequence (Q96LD8 whole entry): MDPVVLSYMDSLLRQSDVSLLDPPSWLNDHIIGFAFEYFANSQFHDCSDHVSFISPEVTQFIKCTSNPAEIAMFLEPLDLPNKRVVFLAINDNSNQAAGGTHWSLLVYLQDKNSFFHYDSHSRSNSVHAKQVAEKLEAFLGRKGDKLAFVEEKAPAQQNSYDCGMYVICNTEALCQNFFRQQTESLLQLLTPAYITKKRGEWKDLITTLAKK
As to the kind of experiment: inhibition of human SENP8 cleavage activity – biochemical, luminescence, SAR follow-up (AID 504501). Format: functional.

Assay [11] concerns the target DNA dC->dU-editing enzyme APOBEC-3G (Homo sapiens, UniProt Q9HC16). Briefly: inhibition of APOBEC3G ssDNA deamination – biochemical, fluorescence, single-stranded DNA substrate, SAR follow-up (AID 602136). In kind it is functional. The conditions noted are these: read-out: IC50_Mean.
The target of assay [12] is DNA dC->dU-editing enzyme APOBEC-3A (Homo sapiens, UniProt P31941). As to the kind of experiment: SAR analysis of small molecule inhibitors of APOBEC3A DNA Deaminase via a fluorescence-based single-stranded DNA deaminase assay. Format: functional. The following applies: read-out: IC50_Mean.
DNA dC->dU-editing enzyme APOBEC-3A, sequence (P31941 whole entry): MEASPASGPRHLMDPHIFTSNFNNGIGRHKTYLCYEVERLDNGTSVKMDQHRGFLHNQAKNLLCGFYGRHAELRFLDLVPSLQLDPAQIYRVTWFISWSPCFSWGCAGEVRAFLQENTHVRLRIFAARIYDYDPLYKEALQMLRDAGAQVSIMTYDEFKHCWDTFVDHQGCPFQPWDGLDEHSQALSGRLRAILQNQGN

T2 sequence (P65502 whole entry): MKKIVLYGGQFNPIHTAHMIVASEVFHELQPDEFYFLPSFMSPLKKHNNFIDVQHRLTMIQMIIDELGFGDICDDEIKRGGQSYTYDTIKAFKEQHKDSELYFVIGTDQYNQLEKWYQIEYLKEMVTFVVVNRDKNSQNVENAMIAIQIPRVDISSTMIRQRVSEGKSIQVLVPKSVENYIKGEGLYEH
Melanocortin receptor 4, sequence (P32245 whole entry): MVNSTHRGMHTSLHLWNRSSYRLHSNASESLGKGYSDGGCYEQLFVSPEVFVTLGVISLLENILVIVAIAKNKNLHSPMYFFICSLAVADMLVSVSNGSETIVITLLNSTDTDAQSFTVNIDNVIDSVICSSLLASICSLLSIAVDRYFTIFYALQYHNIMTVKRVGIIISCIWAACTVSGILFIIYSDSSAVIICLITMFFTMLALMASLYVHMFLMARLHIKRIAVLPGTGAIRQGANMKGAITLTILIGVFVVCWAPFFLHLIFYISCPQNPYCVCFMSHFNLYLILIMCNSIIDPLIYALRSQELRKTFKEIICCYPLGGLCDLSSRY
DNA dC->dU-editing enzyme APOBEC-3G, sequence (Q9HC16 whole entry): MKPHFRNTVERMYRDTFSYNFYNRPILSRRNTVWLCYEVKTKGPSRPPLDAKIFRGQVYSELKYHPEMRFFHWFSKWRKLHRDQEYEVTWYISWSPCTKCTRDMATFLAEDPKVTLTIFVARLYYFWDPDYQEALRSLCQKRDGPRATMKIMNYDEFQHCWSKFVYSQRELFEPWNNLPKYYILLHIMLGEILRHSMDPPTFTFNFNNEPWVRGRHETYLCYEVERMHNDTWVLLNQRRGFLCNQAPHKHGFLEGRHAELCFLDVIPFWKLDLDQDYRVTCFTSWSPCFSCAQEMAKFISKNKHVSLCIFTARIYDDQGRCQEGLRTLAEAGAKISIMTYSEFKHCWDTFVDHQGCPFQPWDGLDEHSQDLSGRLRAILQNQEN

With `CCOC(=O)c1cc2sccc2n1CC(=O)Nc1ccc2c(c1)OCCO2`, the IC50 was 15.7 µM (inactive) on Steroidogenic factor 1, 35.9 µM (inactive) in assay [1] and 35.9 µM (inactive) in [2].

For the molecule `COc1ccc(CSc2nc3nc(C)cc(C)n3n2)cc1F`, the figures for the IC50 in [3] and in assay [4] were 11.2 µM (active) and 2.4 µM (active), respectively.

As for `NC(=O)[C@H]1CC2(CC(c3cccc(NC(=O)COc4ccc(Cl)cc4)c3)=NO2)CN1C(=O)CC(c1ccccc1)c1ccccc1` (some centres undefined), the IC50 in assay [5] was 37.7 µM (active); in [6], 12.7 µM (active).

For the molecule `COc1ccccc1NS(=O)(=O)c1ccc(C)c(C(=O)NCC(c2ccco2)N2CCCCC2)c1` (centres undefined), the IC50 in assay [3] is 0.409 µM (active); in assay [4], 0.778 µM (active).

For `Cc1ccc(NC(=S)NC(=O)c2ccc(-c3ccc(Cl)cc3)o2)c(O)c1`, the EC50 was 9.04 µM (active) with Streptococcus, > 89.2 µM (inactive) at Melanocortin receptor 4 and 7.63 µM (active) in assay [7].

Turning to `CCc1cc(O)nc(SCC(=O)Nc2ccc3c(c2)OCCO3)n1`, the results for the IC50 (on Steroidogenic factor 1; in assay [1]; in assay [2]) were 12 µM (inactive), 35.9 µM (inactive) and 35.9 µM (inactive), respectively.

Turning to `COc1cc(-c2cc(NC=O)c3ncc(-c4cccc(C(F)(F)F)c4)n3c2)cc(OC)c1OC`, at Melanocortin receptor 4, the EC50 is > 89.2 µM (inactive). The IC50 with H9c2 was 51.3 µM (inactive).

As to `Ic1ccccc1-c1nc(/C=C/c2ccccc2)no1`, the IC50 was 5 µM (active) in assay [8], 13 µM (active) in [9], 18 µM (active) on Caspase-3 and 15 µM (active) in [10].

With `N#Cc1c(NC(=O)c2cnn3cc(Br)cnc23)sc2c1CCC2`, the IC50 (in assay [8]; in assay [9]; on Caspase-3; in assay [10]) was > 99 µM (inactive) throughout.

As for `O=C(O)c1ccc(Cl)c2c1C1C=CCC1C(c1ccccc1F)N2` (centres undefined), the IC50 in assay [11] was > 99 µM (inactive); in assay [12], 27.4 µM (inactive).

Regarding `CCOc1ccccc1N1C(=O)C(=O)N(CC(=O)c2ccc[nH]2)C1=O`, the IC50 in [11] and in assay [12] was > 99 µM (inactive) throughout.

A word on the EC50: it is the concentration needed to bring the measured effect to its halfway point.
